One block for each molecule: values may come before it.
What was measured:
[1] = Terminal half life in B6 mouse at 25 mg/kg, ip by UV-HPLC analysis; assay type: ADME, organism-based; settings: in vivo, read-out: beta t1/2 (converted)
[2] = Terminal half life in B6 mouse at 50 mg/kg, po by UV-HPLC analysis; assay type: ADME, organism-based; settings: B6, mouse, in vivo, read-out: beta t1/2 (converted)
Rattus norvegicus [3] = test: Antivascular activity in rat model of retinopathy assessed as vessel regression in retina at 5 mg/ml, administered intravitreally on postnatal day 8 measured after 6 days by ADPase-staining based histochemical analysis; assay type: functional
[4] = Cmin in B6 mouse at 200 mg/kg, po measured after 7 hrs by UV-HPLC analysis; assay type: ADME, organism-based; settings: in vivo, read-out: Cmin
[5] = AUClast in B6 mouse at 200 mg/kg, po by UV-HPLC analysis; assay type: ADME, organism-based; parameters: dose 200 mg/kg, time 0 - last, route oral; settings: in vivo
[6] = Terminal half life in B6 mouse at 200 mg/kg, po by UV-HPLC analysis; assay type: ADME, organism-based; settings: in vivo, read-out: beta t1/2 (converted)
[7] = Cmax in B6 mouse at 50 mg/kg, po by UV-HPLC analysis; assay type: ADME, organism-based; parameters: dose 50 mg/kg, route oral; settings: in vivo
Mus musculus = test: (§1) Cmax in B6 mouse at 25 mg/kg, po by UV-HPLC analysis; assay type: ADME, organism-based; parameters: dose 25 mg/kg, route oral; settings: mouse, in vivo, BLD = below limit of detection
[8] = Terminal half life in B6 mouse at 25 mg/kg, po by UV-HPLC analysis; assay type: ADME, organism-based; settings: in vivo; for half-life: B6, mouse, read-out: beta t1/2 (converted)
Rattus norvegicus [9] = test: Antivascular activity in rat model of retinopathy assessed as vessel regression in retina at 5 mg/ml, administered intravitreally measured after 6 days by ADPase-staining based histochemical analysis; assay type: functional
[10] = as §1; assay type: ADME, organism-based; parameters: dose 25 mg/kg, route oral; settings: B6, mouse, in vivo
[11] = AUClast in B6 mouse at 25 mg/kg, po by UV-HPLC analysis; assay type: ADME, organism-based; parameters: dose 25 mg/kg, time 0 - last, route oral; settings: in vivo
[12] = Cmin in B6 mouse at 8 mg/kg, po measured after 7 hrs by UV-HPLC analysis; assay type: ADME, organism-based; settings: in vivo, read-out: Cmin
[13] = Cmin in B6 mouse at 40 mg/kg, po measured after 7 hrs by UV-HPLC analysis; assay type: ADME, organism-based; settings: in vivo, read-out: Cmin
[14] = tested on: Focal adhesion kinase 1 (Homo sapiens), Q05397 [P410T]; test: Inhibition of human FAK P410T mutant expressed in baculovirus expression system at 10 uM using poly Glu-Tyr (4:1) as substrate by fluorescence polarization method
Focal adhesion kinase 1 (Homo sapiens), Q05397 [P410T], sequence (Q05397 whole entry P410T): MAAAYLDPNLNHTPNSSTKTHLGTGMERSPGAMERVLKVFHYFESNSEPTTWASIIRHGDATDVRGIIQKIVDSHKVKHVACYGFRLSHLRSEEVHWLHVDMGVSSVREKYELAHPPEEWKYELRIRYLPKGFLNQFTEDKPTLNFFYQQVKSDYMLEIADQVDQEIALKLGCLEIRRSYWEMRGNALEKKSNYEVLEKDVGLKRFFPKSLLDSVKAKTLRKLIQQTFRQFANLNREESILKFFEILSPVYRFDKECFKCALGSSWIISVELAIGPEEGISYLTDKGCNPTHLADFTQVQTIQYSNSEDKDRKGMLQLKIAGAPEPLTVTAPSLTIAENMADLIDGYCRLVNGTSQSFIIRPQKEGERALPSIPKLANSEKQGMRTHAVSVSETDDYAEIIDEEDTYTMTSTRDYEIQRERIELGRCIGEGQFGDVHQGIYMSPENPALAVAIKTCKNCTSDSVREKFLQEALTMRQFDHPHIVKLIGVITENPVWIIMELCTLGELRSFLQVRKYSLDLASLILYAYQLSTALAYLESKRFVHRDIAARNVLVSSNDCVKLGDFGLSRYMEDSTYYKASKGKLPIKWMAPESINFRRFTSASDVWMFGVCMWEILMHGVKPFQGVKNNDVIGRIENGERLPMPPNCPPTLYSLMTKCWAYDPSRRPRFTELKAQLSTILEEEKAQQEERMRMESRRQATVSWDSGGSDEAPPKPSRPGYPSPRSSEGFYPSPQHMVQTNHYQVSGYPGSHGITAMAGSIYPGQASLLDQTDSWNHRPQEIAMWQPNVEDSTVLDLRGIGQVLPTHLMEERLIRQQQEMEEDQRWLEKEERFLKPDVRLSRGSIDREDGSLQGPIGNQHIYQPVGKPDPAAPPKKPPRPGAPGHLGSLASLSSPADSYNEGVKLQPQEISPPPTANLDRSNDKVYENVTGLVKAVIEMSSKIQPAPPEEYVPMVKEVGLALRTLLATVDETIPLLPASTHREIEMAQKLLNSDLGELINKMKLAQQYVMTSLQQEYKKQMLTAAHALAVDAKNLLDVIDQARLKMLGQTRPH

[15] = Metabolic stability in human liver microsomes assessed as compound remaining at 5 uM measured after 2 hrs in presence of NADPH-regenerating system by LC-UV/MS analysis; assay type: ADME; settings: read-out: Stability
[16] = target: T1, Serine/threonine-protein kinase Chk1 (Homo sapiens) (UniProt O14757); test: Inhibition of full length human C-terminal 6His-tagged CHK1 expressed in baculovirus/insect expression system assessed as reduction in NADH oxidation at 50 uM using Syntide2 as substrate by pyruvate kinase/lactate dehydrogenase coupled assay
T1 sequence (whole entry): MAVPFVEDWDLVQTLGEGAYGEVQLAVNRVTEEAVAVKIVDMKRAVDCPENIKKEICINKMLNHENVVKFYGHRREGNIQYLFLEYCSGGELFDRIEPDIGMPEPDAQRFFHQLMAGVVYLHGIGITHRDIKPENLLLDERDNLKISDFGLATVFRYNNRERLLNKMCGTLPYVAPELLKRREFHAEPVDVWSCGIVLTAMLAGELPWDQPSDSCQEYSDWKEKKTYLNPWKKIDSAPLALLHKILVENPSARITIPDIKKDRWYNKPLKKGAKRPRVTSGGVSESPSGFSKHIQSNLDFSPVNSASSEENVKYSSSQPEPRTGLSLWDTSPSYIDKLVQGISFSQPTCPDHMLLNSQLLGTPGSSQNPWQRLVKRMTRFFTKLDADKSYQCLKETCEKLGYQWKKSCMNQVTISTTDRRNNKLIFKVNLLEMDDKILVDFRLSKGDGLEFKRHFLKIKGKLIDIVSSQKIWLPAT

[17] = Terminal half life in B6 mouse at 10 mg/kg, po by UV-HPLC analysis; assay type: ADME, organism-based; settings: in vivo, read-out: beta t1/2 (converted)
[18] = Terminal half life in B6 mouse at 25 mg/kg, po administered in 0.5% CMC by UV-HPLC analysis; assay type: ADME, organism-based; settings: in vivo, read-out: beta t1/2 (converted)
[19] = target: T1, Serine/threonine-protein kinase Chk1 (Homo sapiens); test: Inhibition of full length human C-terminal 6His-tagged CHK1 expressed in baculovirus/insect expression system assessed as reduction in NADH oxidation at 20 uM using Syntide2 as substrate by pyruvate kinase/lactate dehydrogenase coupled assay
[20] = tested on: Vascular endothelial growth factor receptor 2 (Homo sapiens), P35968 [E990V]; settings: at 50 nM
Vascular endothelial growth factor receptor 2 (Homo sapiens), P35968 [E990V], sequence (P35968 whole entry E990V): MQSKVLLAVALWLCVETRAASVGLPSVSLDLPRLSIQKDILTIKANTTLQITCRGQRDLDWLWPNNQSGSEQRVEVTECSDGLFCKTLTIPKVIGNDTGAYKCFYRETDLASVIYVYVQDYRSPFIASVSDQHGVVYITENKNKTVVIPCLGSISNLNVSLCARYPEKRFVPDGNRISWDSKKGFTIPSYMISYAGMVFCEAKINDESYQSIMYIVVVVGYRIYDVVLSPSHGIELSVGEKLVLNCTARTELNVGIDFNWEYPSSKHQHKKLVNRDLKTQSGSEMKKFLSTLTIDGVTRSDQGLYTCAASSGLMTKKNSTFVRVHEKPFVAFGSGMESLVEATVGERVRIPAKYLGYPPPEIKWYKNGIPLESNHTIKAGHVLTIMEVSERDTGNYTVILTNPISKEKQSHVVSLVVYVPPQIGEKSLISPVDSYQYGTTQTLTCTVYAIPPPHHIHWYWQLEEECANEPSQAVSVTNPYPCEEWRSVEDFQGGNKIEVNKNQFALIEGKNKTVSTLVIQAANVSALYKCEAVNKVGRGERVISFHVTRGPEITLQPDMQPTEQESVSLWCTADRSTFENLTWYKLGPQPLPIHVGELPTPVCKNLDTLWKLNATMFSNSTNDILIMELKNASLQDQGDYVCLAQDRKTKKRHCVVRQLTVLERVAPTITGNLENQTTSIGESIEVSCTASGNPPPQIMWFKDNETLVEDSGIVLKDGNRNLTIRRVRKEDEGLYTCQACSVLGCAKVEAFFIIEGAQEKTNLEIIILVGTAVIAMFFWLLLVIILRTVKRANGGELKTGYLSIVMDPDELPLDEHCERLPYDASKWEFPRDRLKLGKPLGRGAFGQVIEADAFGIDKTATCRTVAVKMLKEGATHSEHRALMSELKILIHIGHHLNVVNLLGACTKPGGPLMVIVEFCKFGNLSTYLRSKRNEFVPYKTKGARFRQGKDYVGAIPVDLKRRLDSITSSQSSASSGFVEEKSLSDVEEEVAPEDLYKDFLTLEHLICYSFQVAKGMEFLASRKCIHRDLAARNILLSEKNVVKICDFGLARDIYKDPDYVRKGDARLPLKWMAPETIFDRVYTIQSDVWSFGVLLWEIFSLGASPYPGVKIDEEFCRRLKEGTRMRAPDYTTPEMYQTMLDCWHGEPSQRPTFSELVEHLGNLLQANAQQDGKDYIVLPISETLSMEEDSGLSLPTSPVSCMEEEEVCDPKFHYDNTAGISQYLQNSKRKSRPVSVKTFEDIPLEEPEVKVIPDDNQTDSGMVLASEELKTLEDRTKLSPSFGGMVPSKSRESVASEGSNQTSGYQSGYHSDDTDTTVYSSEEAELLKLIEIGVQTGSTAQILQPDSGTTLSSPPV

[21] = target: Cyclin-dependent kinase 1 (Homo sapiens) (UniProt P06493); test: Inhibition of CDK1 (unknown origin) at 1 uM
Cyclin-dependent kinase 1 (Homo sapiens), sequence (P06493 whole entry, looked up): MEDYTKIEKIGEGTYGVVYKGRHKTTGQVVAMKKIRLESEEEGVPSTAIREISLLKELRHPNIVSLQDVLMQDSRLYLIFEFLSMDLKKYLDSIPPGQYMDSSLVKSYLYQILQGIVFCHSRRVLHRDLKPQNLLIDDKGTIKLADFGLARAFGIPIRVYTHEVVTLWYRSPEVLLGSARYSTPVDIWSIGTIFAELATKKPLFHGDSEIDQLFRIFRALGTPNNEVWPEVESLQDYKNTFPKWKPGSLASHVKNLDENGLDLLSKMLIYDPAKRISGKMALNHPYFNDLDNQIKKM

[22] = Terminal half life in B6 mouse at 8 mg/kg, po by UV-HPLC analysis; assay type: ADME, organism-based; settings: in vivo, read-out: beta t1/2 (converted)
[23] = Cmax in B6 mouse at 10 mg/kg, po by UV-HPLC analysis; assay type: ADME, organism-based; parameters: dose 10 mg/kg, route oral; settings: in vivo
[24] = Terminal half life in B6 mouse at 40 mg/kg, po by UV-HPLC analysis; assay type: ADME, organism-based; settings: in vivo, read-out: beta t1/2 (converted)
[25] = AUClast in B6 mouse at 10 mg/kg, po by UV-HPLC analysis; assay type: ADME, organism-based; parameters: dose 10 mg/kg, route oral, time 0 - last; settings: in vivo
[26] = AUClast in B6 mouse at 50 mg/kg, po by UV-HPLC analysis; assay type: ADME, organism-based; parameters: dose 50 mg/kg, route oral, time 0 - last; settings: in vivo

Compound: CCn1nc(C)cc1C(=O)Nc1cccc(C(=O)c2ccc3c(/C=C/c4ccccn4)n[nH]c3c2)c1
half-life [1]: 2.9 h | half-life [2]: 3.4 h | Activity (Rattus norvegicus [3]): >=25 - 75%

Compound: Cc1cc(C(=O)Nc2cccc(C(=O)c3ccc4c(/C=C/c5ccccn5)n[nH]c4c3)c2)n(C)n1.Cl
concentration at 7 h [4]: 12100 ng/mL | AUC(0-t) [5]: 156 µg·h/mL | half-life [6]: 9.4 h

Compound: O=C(Nc1cccc(Oc2ccc3c(/C=C/c4ccccc4)n[nH]c3c2)c1)c1ccccc1
Cmax [7]: 198 ng/mL

Cmax (Mus musculus): Bld | beta t1/2 ([8]; mouse, BLD = below limit of detection): Bld
Compound: O=C(NCc1cccc(F)c1)c1ccccc1Sc1ccc2c(/C=C/c3ccccn3)n[nH]c2c1

Compound: Cc1cc(C(=O)Nc2cc(C(=O)c3ccc4c(/C=C/c5ccccn5)n[nH]c4c3)c(C)cc2C)n(C)n1
Activity (Rattus norvegicus [3]): <=25%

Compound: CC(=O)c1cccc(C(=O)Nc2cccc(N(C)c3ccc4c(/C=C/c5ccc6c(c5)OCO6)n[nH]c4c3)c2)c1
Activity (Rattus norvegicus [9]): 36 - 37%

Compound: Cc1cc(C(=O)Nc2cc(Nc3ccc4c(/C=C/c5ccccn5)n[nH]c4c3)ccc2F)n(C)n1.Cl
concentration at 7 h [4]: 12700 ng/mL | Cmax [10]: 50000 ng/mL | AUC(0-t) [11]: 327 µg·h/mL | concentration at 7 h [12]: 1900 ng/mL | concentration at 7 h [13]: 4140 ng/mL

Compound: COc1cc(-c2ccc3c(-c4cc5ccccc5[nH]4)n[nH]c3c2)ccc1O
inhibition [14]: 26%

Compound: O=C(Nc1cccc(C(=O)c2ccc3c(/C=C/c4ccccn4)n[nH]c3c2)c1)c1ccncc1
half-life [1]: 4.7 h | remaining at 2 h, 5 µM [15]: 50% | half-life [2]: 1.1 h

Compound: O=C(c1cccc(NC(=O)C2C[C@H]2c2ccccc2)c1)c1ccc2c(/C=C/c3ccccn3)n[nH]c2c1 (mixture of isomers)
half-life [1]: 3.1 h | half-life [2]: 0.5 h | inhibition [16]: 48%

half-life [17]: 3.1 h | half-life [1]: 5.3 h | half-life [8]: 1.9 h | half-life [2]: 39.3 h
Compound: CCn1nc(C)cc1C(=O)Nc1cccc(Oc2ccc3c(/C=C/c4ccccn4)n[nH]c3c2)c1

Compound: CCONC(=O)c1ccccc1Sc1ccc2c(/C=C/c3ccccn3)n[nH]c2c1
half-life [1]: 4.1 h | half-life [8]: 2 h | Activity (Rattus norvegicus [3]): >=25 - 75% | half-life [18]: 2 h

inhibition [19]: 33%
Compound: O=C(c1ccc2c(-c3nc4ccccc4[nH]3)n[nH]c2c1)N1CCC(CCO)CC1

Compound: O=C(Nc1cccc(O)c1)c1ccc2c(-c3nc4ccccc4[nH]3)n[nH]c2c1
inhibition [19]: 57.7%

Compound: O=C(Nc1cccc(Oc2ccc3c(/C=C/c4ccc(Cl)cc4)n[nH]c3c2)c1)c1ccccc1
Activity (Rattus norvegicus [9]): 25 - 75%

Compound: CCn1nc(C)cc1C(=O)Nc1cccc(Oc2ccc3c(/C=C/c4c[nH]cn4)n[nH]c3c2)c1
Cmax [10]: 179 ng/mL | half-life [8]: 2.1 h

inhibition [19]: 38.6%
Compound: Cc1cc(NC(=O)c2ccc3c(-c4nc5ccccc5[nH]4)n[nH]c3c2)n[nH]1

Compound: O=C(NCCN1CCOCC1)c1ccc2c(-c3nc4ccccc4[nH]3)n[nH]c2c1
inhibition [19]: 21.7%

Compound: C#CCNC(=O)c1cccc(C(=O)c2ccc3c(/C=C/c4ccccn4)n[nH]c3c2)c1
inhibition [20]: 5%

Compound: C/C=C/C(=O)Nc1cccc(C(=O)c2ccc3c(/C=C/c4ccccn4)n[nH]c3c2)c1
half-life [1]: 1.7 h | half-life [2]: 2.6 h | Activity (Rattus norvegicus [3]): 25 - 75%

inhibition [21]: 7 to 31%
Compound: Fc1cccc(/C=C/c2n[nH]c3cc(-c4ccncc4)ccc23)c1F

Compound: CCn1nc(C)cc1C(=O)Nc1cccc(C(=O)c2ccc3c(/C=C/c4ccccn4)n[nH]c3c2)c1.Cl
half-life [17]: 3.1 h | half-life [22]: 1.5 h | Cmax [23]: 12 ng/mL | half-life [24]: 2.4 h | half-life [8]: 1.6 h | concentration at 7 h [12]: 122 ng/mL | AUC(0-t) [25]: 0.061 µg·h/mL | concentration at 7 h [13]: 1880 ng/mL

AUC(0-t) [26]: 276 µg·h/mL
Compound: CCn1nc(C)cc1C(=O)Nc1cc(Nc2ccc3c(/C=C/c4ccccn4)n[nH]c3c2)c(F)cc1C.Cl
